System: MDA-MB-231
Assay: cells
Conditions: Homo sapiens, MDA-MB-231, 72 h
Description: Cytotoxicity against human MDA-MB-231 cells after 72 hrs by MTT assay

Compound | IC50 [µM]
CO[C@H]1/C=C\C=C(/C)C(=O)NC2=CC(=O)C(NCCCCNC(=O)c3ccccn3)=C(C[C@@H](C)C[C@H](OC)[C@H](O)[C@@H](C)/C=C(\C)[C@@H]1OC(N)=O)C2=O | 3.14
COc1cccc(/C=C/C(=O)NCCCCCCNC2=C3C[C@@H](C)C[C@H](OC)[C@H](O)[C@@H](C)/C=C(\C)[C@H](OC(N)=O)[C@@H](OC)/C=C\C=C(/C)C(=O)NC(=CC2=O)C3=O)c1OC | 6.03
CO[C@H]1/C=C\C=C(/C)C(=O)NC2=CC(=O)C(NCCCCCCNC(=O)c3cccnc3)=C(C[C@@H](C)C[C@H](OC)[C@H](O)[C@@H](C)/C=C(\C)[C@@H]1OC(N)=O)C2=O | 0.5
CO[C@H]1/C=C\C=C(/C)C(=O)NC2=CC(=O)C(NCC3CCN(C(=O)c4ccncc4)CC3)=C(C[C@@H](C)C[C@H](OC)[C@H](O)[C@@H](C)/C=C(\C)[C@@H]1OC(N)=O)C2=O | 2.84
CO[C@H]1/C=C\C=C(/C)C(=O)NC2=CC(=O)C(NCCCCCCNC(=O)c3cncc(Br)c3)=C(C[C@@H](C)C[C@H](OC)[C@H](O)[C@@H](C)/C=C(\C)[C@@H]1OC(N)=O)C2=O | 2.35
COc1cc(/C=C/C(=O)NCCCCCCNC2=C3C[C@@H](C)C[C@H](OC)[C@H](O)[C@@H](C)/C=C(\C)[C@H](OC(N)=O)[C@@H](OC)/C=C\C=C(/C)C(=O)NC(=CC2=O)C3=O)cc(OC)c1 | 1.7
CO[C@H]1/C=C\C=C(/C)C(=O)NC2=CC(=O)C(NCCCCCCNC(=O)c3ccccn3)=C(C[C@@H](C)C[C@H](OC)[C@H](O)[C@@H](C)/C=C(\C)[C@@H]1OC(N)=O)C2=O | 1.73
CO[C@H]1/C=C\C=C(/C)C(=O)NC2=CC(=O)C(NCCCCCCNC(=O)c3ccc(Br)cc3)=C(C[C@@H](C)C[C@H](OC)[C@H](O)[C@@H](C)/C=C(\C)[C@@H]1OC(N)=O)C2=O | 4.65
CO[C@H]1/C=C\C=C(/C)C(=O)NC2=CC(=O)C(NCCCCCCNC(=O)c3cncnc3)=C(C[C@@H](C)C[C@H](OC)[C@H](O)[C@@H](C)/C=C(\C)[C@@H]1OC(N)=O)C2=O | 1.22
CO[C@H]1/C=C\C=C(/C)C(=O)NC2=CC(=O)C(NCCCCCCNC(=O)/C=C/c3ccc(O)c(O)c3)=C(C[C@@H](C)C[C@H](OC)[C@H](O)[C@@H](C)/C=C(\C)[C@@H]1OC(N)=O)C2=O | 3.93
COc1ccc(/C=C/C(=O)NCCCCCCNC2=C3C[C@@H](C)C[C@H](OC)[C@H](O)[C@@H](C)/C=C(\C)[C@H](OC(N)=O)[C@@H](OC)/C=C\C=C(/C)C(=O)NC(=CC2=O)C3=O)cc1O | 1.47
CO[C@H]1/C=C\C=C(/C)C(=O)NC2=CC(=O)C(NCCCCNC(=O)c3cccnc3)=C(C[C@@H](C)C[C@H](OC)[C@H](O)[C@@H](C)/C=C(\C)[C@@H]1OC(N)=O)C2=O | 4.09
CO[C@H]1/C=C\C=C(/C)C(=O)NC2=CC(=O)C(NCCCCCCNC(=O)/C=C/c3ccccc3C)=C(C[C@@H](C)C[C@H](OC)[C@H](O)[C@@H](C)/C=C(\C)[C@@H]1OC(N)=O)C2=O | 6.91
CO[C@H]1/C=C\C=C(/C)C(=O)NC2=CC(=O)C(NCCCCCCNC(=O)c3nc(C)c(C)nc3C)=C(C[C@@H](C)C[C@H](OC)[C@H](O)[C@@H](C)/C=C(\C)[C@@H]1OC(N)=O)C2=O | 3.12
CO[C@H]1/C=C\C=C(/C)C(=O)NC2=CC(=O)C(NCCCCNC(=O)c3ccccc3O)=C(C[C@@H](C)C[C@H](OC)[C@H](O)[C@@H](C)/C=C(\C)[C@@H]1OC(N)=O)C2=O | 4.9
CO[C@H]1/C=C\C=C(/C)C(=O)NC2=CC(=O)C(NCCCCCCNC(=O)/C=C/c3ccc(O)cc3)=C(C[C@@H](C)C[C@H](OC)[C@H](O)[C@@H](C)/C=C(\C)[C@@H]1OC(N)=O)C2=O | 0.97
CO[C@H]1/C=C\C=C(/C)C(=O)NC2=CC(=O)C(NCC3CCN(C(=O)c4ccccn4)CC3)=C(C[C@@H](C)C[C@H](OC)[C@H](O)[C@@H](C)/C=C(\C)[C@@H]1OC(N)=O)C2=O | 1.12
CO[C@H]1/C=C\C=C(/C)C(=O)NC2=CC(=O)C(NCCCCCCNC(=O)/C=C/c3ccc(N(C)C)cc3)=C(C[C@@H](C)C[C@H](OC)[C@H](O)[C@@H](C)/C=C(\C)[C@@H]1OC(N)=O)C2=O | 2.11
CO[C@H]1/C=C\C=C(/C)C(=O)NC2=CC(=O)C(NCCCCCCNC(=O)c3ccncn3)=C(C[C@@H](C)C[C@H](OC)[C@H](O)[C@@H](C)/C=C(\C)[C@@H]1OC(N)=O)C2=O | 0.92
CO[C@H]1/C=C\C=C(/C)C(=O)NC2=CC(=O)C(NCCCCCCNC(=O)/C=C/c3ccccc3[N+](=O)[O-])=C(C[C@@H](C)C[C@H](OC)[C@H](O)[C@@H](C)/C=C(\C)[C@@H]1OC(N)=O)C2=O | 1.61
CO[C@H]1/C=C\C=C(/C)C(=O)NC2=CC(=O)C(NCCCCCCNC(=O)c3ccc([N+](=O)[O-])cc3)=C(C[C@@H](C)C[C@H](OC)[C@H](O)[C@@H](C)/C=C(\C)[C@@H]1OC(N)=O)C2=O | 2.95
CO[C@H]1/C=C\C=C(/C)C(=O)NC2=CC(=O)C(NCCCCCCNC(=O)/C=C/c3cccc(O)c3)=C(C[C@@H](C)C[C@H](OC)[C@H](O)[C@@H](C)/C=C(\C)[C@@H]1OC(N)=O)C2=O | 1.24
CO[C@H]1/C=C\C=C(/C)C(=O)NC2=CC(=O)C(NCCCCCCNC(=O)c3ccc(F)cc3)=C(C[C@@H](C)C[C@H](OC)[C@H](O)[C@@H](C)/C=C(\C)[C@@H]1OC(N)=O)C2=O | 4.16

Compound | IC50 [µM]
CO[C@H]1/C=C\C=C(/C)C(=O)NC2=CC(=O)C(NCCCCCCNC(=O)/C=C/c3ccccc3)=C(C[C@@H](C)C[C@H](OC)[C@H](O)[C@@H](C)/C=C(\C)[C@@H]1OC(N)=O)C2=O | 5.14
CO[C@H]1/C=C\C=C(/C)C(=O)NC2=CC(=O)C(NCCCCCCNC(=O)/C=C/c3cccc([N+](=O)[O-])c3)=C(C[C@@H](C)C[C@H](OC)[C@H](O)[C@@H](C)/C=C(\C)[C@@H]1OC(N)=O)C2=O | 1.02
CO[C@H]1/C=C\C=C(/C)C(=O)NC2=CC(=O)C(NCCCCCCNC(=O)/C=C/c3cccc(Cl)c3)=C(C[C@@H](C)C[C@H](OC)[C@H](O)[C@@H](C)/C=C(\C)[C@@H]1OC(N)=O)C2=O | 5.23
CO[C@H]1/C=C\C=C(/C)C(=O)NC2=CC(=O)C(NCC3CCN(C(=O)c4ccccc4O)CC3)=C(C[C@@H](C)C[C@H](OC)[C@H](O)[C@@H](C)/C=C(\C)[C@@H]1OC(N)=O)C2=O | 1.82
COc1ccc(/C=C/C(=O)NCCCCCCNC2=C3C[C@@H](C)C[C@H](OC)[C@H](O)[C@@H](C)/C=C(\C)[C@H](OC(N)=O)[C@@H](OC)/C=C\C=C(/C)C(=O)NC(=CC2=O)C3=O)c(OC)c1OC | 1.86
CO[C@H]1/C=C\C=C(/C)C(=O)NC2=CC(=O)C(NCCCCCCNC(=O)/C=C/c3ccc(OC(F)(F)F)cc3)=C(C[C@@H](C)C[C@H](OC)[C@H](O)[C@@H](C)/C=C(\C)[C@@H]1OC(N)=O)C2=O | > 10
CO[C@H]1/C=C\C=C(/C)C(=O)NC2=CC(=O)C(NCCCCCCNC(=O)c3cccs3)=C(C[C@@H](C)C[C@H](OC)[C@H](O)[C@@H](C)/C=C(\C)[C@@H]1OC(N)=O)C2=O | 3.03
CO[C@H]1/C=C\C=C(/C)C(=O)NC2=CC(=O)C(NCCCCCCNC(=O)c3cc(O)cc(O)c3)=C(C[C@@H](C)C[C@H](OC)[C@H](O)[C@@H](C)/C=C(\C)[C@@H]1OC(N)=O)C2=O | 4.35
COc1ccccc1/C=C/C(=O)NCCCCCCNC1=C2C[C@@H](C)C[C@H](OC)[C@H](O)[C@@H](C)/C=C(\C)[C@H](OC(N)=O)[C@@H](OC)/C=C\C=C(/C)C(=O)NC(=CC1=O)C2=O | 3.32
CO[C@H]1/C=C\C=C(/C)C(=O)NC2=CC(=O)C(NCCCCNC(=O)/C=C/c3ccc(O)cc3)=C(C[C@@H](C)C[C@H](OC)[C@H](O)[C@@H](C)/C=C(\C)[C@@H]1OC(N)=O)C2=O | 1.66
CO[C@H]1/C=C\C=C(/C)C(=O)NC2=CC(=O)C(NCCCCCCNC(=O)c3ccc(Cl)cc3)=C(C[C@@H](C)C[C@H](OC)[C@H](O)[C@@H](C)/C=C(\C)[C@@H]1OC(N)=O)C2=O | 4.1
CO[C@H]1/C=C\C=C(/C)C(=O)NC2=CC(=O)C(NCCCCNC(=O)c3ccncc3)=C(C[C@@H](C)C[C@H](OC)[C@H](O)[C@@H](C)/C=C(\C)[C@@H]1OC(N)=O)C2=O | 3.45
CO[C@H]1/C=C\C=C(/C)C(=O)NC2=CC(=O)C(NCCCCCCNC(=O)c3ccccc3O)=C(C[C@@H](C)C[C@H](OC)[C@H](O)[C@@H](C)/C=C(\C)[C@@H]1OC(N)=O)C2=O | 6.04
CO[C@H]1/C=C\C=C(/C)C(=O)NC2=CC(=O)C(NCC3CCN(C(=O)c4cccnc4)CC3)=C(C[C@@H](C)C[C@H](OC)[C@H](O)[C@@H](C)/C=C(\C)[C@@H]1OC(N)=O)C2=O | 2.03
CO[C@H]1/C=C\C=C(/C)C(=O)NC2=CC(=O)C(NCCCCCCNC(=O)/C=C/c3cccc(C)c3)=C(C[C@@H](C)C[C@H](OC)[C@H](O)[C@@H](C)/C=C(\C)[C@@H]1OC(N)=O)C2=O | 2.55
COc1ccc(/C=C/C(=O)NCCCCCCNC2=C3C[C@@H](C)C[C@H](OC)[C@H](O)[C@@H](C)/C=C(\C)[C@H](OC(N)=O)[C@@H](OC)/C=C\C=C(/C)C(=O)NC(=CC2=O)C3=O)cc1 | 4.54
CO[C@H]1/C=C\C=C(/C)C(=O)NC2=CC(=O)C(NCC3CCN(C(=O)c4cnc(C)c(C)n4)CC3)=C(C[C@@H](C)C[C@H](OC)[C@H](O)[C@@H](C)/C=C(\C)[C@@H]1OC(N)=O)C2=O | 2.33
CO[C@H]1/C=C\C=C(/C)C(=O)NC2=CC(=O)C(NCCCCCCNC(=O)c3ccccc3Cl)=C(C[C@@H](C)C[C@H](OC)[C@H](O)[C@@H](C)/C=C(\C)[C@@H]1OC(N)=O)C2=O | 3.39
CO[C@H]1/C=C\C=C(/C)C(=O)NC2=CC(=O)C(NCCCCCCNC(=O)c3ccncc3)=C(C[C@@H](C)C[C@H](OC)[C@H](O)[C@@H](C)/C=C(\C)[C@@H]1OC(N)=O)C2=O | 0.89
CO[C@H]1/C=C\C=C(/C)C(=O)NC2=CC(=O)C(NCCCCCCNC(=O)/C=C/c3ccc(C(F)(F)F)cc3)=C(C[C@@H](C)C[C@H](OC)[C@H](O)[C@@H](C)/C=C(\C)[C@@H]1OC(N)=O)C2=O | > 10
CO[C@H]1/C=C\C=C(/C)C(=O)NC2=CC(=O)C(NCC3CCN(C(=O)/C=C/c4ccc(O)cc4)CC3)=C(C[C@@H](C)C[C@H](OC)[C@H](O)[C@@H](C)/C=C(\C)[C@@H]1OC(N)=O)C2=O | 1.68
CO[C@H]1/C=C\C=C(/C)C(=O)NC2=CC(=O)C(NCCCCCCNC(=O)/C=C/c3ccc(C)cc3)=C(C[C@@H](C)C[C@H](OC)[C@H](O)[C@@H](C)/C=C(\C)[C@@H]1OC(N)=O)C2=O | 3.96
CO[C@H]1/C=C\C=C(/C)C(=O)NC2=CC(=O)C(NCCCCNC(=O)c3nc(C)c(C)nc3C)=C(C[C@@H](C)C[C@H](OC)[C@H](O)[C@@H](C)/C=C(\C)[C@@H]1OC(N)=O)C2=O | 8.45
